From ChEMBL document CHEMBL1201862, “PubChem BioAssay data set” (2004)
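Values below derive from 48-hour exposures of cells grown in 96-well plates, with endpoints linearly interpolated between the two concentrations bracketing the appropriate inhibition level. GI50 = concentration required for 50% inhibition of growth.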 The source made the active and inactive calls. No stated cut-off is given here; in the data, active = GI50 up to about 1.1 µM and inactive = higher.

How the values were obtained:
Assay in all cases: NCI anticancer screen, dose series, 48 h
HCT-15 = tested on: HCT-15
SW-620 = tested on: SW-620
A549 = tested on: A549
SN12C = tested on: SN12C
OVCAR-8 = tested on: OVCAR-8
DLD-1 = tested on: DLD-1
U-251 = tested on: U-251
NCI-H226 = tested on: NCI-H226
SF-295 = tested on: SF-295
SNB-19 = tested on: SNB-19
MOLT-4 = tested on: MOLT-4
UACC-257 = tested on: UACC-257
SK-MEL-5 = tested on: SK-MEL-5
DMS-273 = tested on: DMS-273

S=P1(Sc2ccccc2)Oc2ccc3ccccc3c2-c2c(ccc3ccccc23)O1
GI50 (HCT-15): > 80.4 µM | GI50 (SW-620): > 100 µM (inactive) | GI50 (A549): > 100 µM (inactive) | GI50 (SN12C): > 100 µM (inactive) | GI50 (OVCAR-8): > 100 µM (inactive) | GI50 (DLD-1): > 100 µM (inactive) | GI50 (U-251): > 95.5 µM (inactive) | GI50 (NCI-H226): > 100 µM (inactive) | GI50 (SF-295): > 100 µM (inactive) | GI50 (SNB-19): > 100 µM (inactive) | GI50 (MOLT-4): > 82.6 µM (inactive) | GI50 (UACC-257): > 100 µM (inactive) | GI50 (SK-MEL-5): > 100 µM (inactive) | GI50 (DMS-273): > 100 µM (inactive)
